# Data taken from US11702666B2, “Cell-based assay for determining activity in the retinoblastoma pathway” (Medical Diagnostic Laboratories, LLC, priority 2017, dated 2023).
# Numbering of substitutions follows the chain as printed. Numbers in names are those of the source. Entries after “also recorded” stand apart in the source; their conditions may differ.
# B1: Rb I724N: Rb mutant from COSMIC database (protein, UniProt P06400 2-928, looked up, variant I724N)
# Retinoblastoma-associated …: PPKTPRKTAATAAAAAAEPPAPPPPPPPEEDPEQDSGPEDLPLVRLEFEETEEPDFTALCQKLKIPDHVRERAWLTWEKVSSVDGVLGGYIQKKKELWGICIFIAAVDLDEMSFTFTELQKNIEISVHKFFNLLKEIDTSTKVDNAMSRLLKKYDVLFALFSKLERTCELIYLTQPSSSISTEINSALVLKVSWITFLLAKGEVLQMEDDLVISFQLMLCVLDYFIKLSPPMLLKEPYKTAVIPINGSPRTPRRGQNRSARIAKQLENDTRIIEVLCKEHECNIDEVKNVYFKNFIPFMNSLGLVTSNGLPEVENLSKRYEEIYLKNKDLDARLFLDHDKTLQTDSIDSFETQRTPRKSNLDEEVNVIPPHTPVRTVMNTIQQLMMILNSASDQPSENLISYFNNCTVNPKESILKRVKDIGYIFKEKFAKAVGQGCVEIGSQRYKLGVRLYYRVMESMLKSEEERLSIQNFSKLLNDNIFHMSLLACALEVVMATYSRSTSQNLDSGTDLSFPWILNVLNLKAFDFYKVIESFIKAEGNLTREMIKHLERCEHRIMESLAWLSDSPLFDLIKQSKDREGPTDHLESACPLNLPLQNNHTAADMYLSPVRSPKKKGSTTRVNSTANAETQATSAFQTQKPLKSTSLSLFYKKVYRLAYLRLNTLCERLLSEHPELEHIIWTLFQHTLQNEYELMRDRHLDQIMMCSMYGICKVKNIDLKFKINVTAYKDLPHAVQETFKRVLIKEEEYDSIIVFYNSVFMQRLKTNILQYASTRPPTLSPIPHIPRSPYKFPSSPLRIPGGNIYISPLKSPYKISEGLPTPTKMTPRSRILVSIGESFGTSEKFQKINQMVCNSDRVLKRSAEGSNPPKPLKKLRFDIEGSDEADGSKHLPGESKFQQKLAEMTSTRTRMQKQKMNDSMDTSNKEEK
# B2: Rb R798Q: Rb mutant from COSMIC database (protein, UniProt P06400 2-928, looked up, variant R798Q)
# Retinoblastoma-associated …: B1 Retinoblastoma-associated … with N723I, R797Q
# B3: Rb R798W: Rb mutant from COSMIC database (protein, UniProt P06400 2-928, looked up, variant R798W)
# Retinoblastoma-associated …: B1 Retinoblastoma-associated … with N723I, R797W
# B4: p16 A20P: p16 (CDKN2A) mutant (protein)
# chain: MEPAAGSSMEPSADWLATAPARGRVEEVRALLEAGALPNAPNSYGRRPIQVMMMGSARVAELLLLHGAEPNCADPATLTRPVHDAAREGFLDTLVVLHRAGARLDVRDAWGRLPVDLAEELGHRDVARYLRAAAGGTRGSNHARIDAAEGPSDIPD
# Test system: Rb/E2F1-Dp-1 complex
# Assay: CDK6 mutant activity / drug resistance in NanoBiT assay, stable cell line #11
# Format: cell-based, human
# Conditions: CDK6 mutants, compared to the WT (being 100%)
# Procedure: A linear expression cassette of mutated CDK4 or CDK6 was generated by PCR mediated overlapping extension method. A pair of forward and reverse primers containing the targeted mutations was designed. The mutated codon was located in the middle of a primer flanked by 18-21 nucleotides on each side. Two PCRs (named as PCR #1 and PCR #2 in FIG. 1) were performed using UF-CMV forward and mutated reverse primers, or mutated forward and BGH-UR primers. The PCR products were cleaned up by ExoSAP-IT® (Affymetrix) to remove unconsumed dNTPs and primers. The treated PCR products were mixed together followed by dilution with water. A second round of PCR was performed using the diluted PCR mixture, and the UF and UR primers (FIG. 1). The amplified products were gel-purified. The DNA concentration was quantitated by the optical density at 260 nm using Nanodrop. The targeted mutations were incorporated in the CDK4 or CDK6 genes during the PCR mediated overlapping extension method. The introduced mutations were confirmed by the DNA sequencing.
# To examine the ability of the assay to detect variants in CDK4 or CDK6 that affect function, kinase dead mutants and COSMIC (Catalogue Of Somatic Mutations in cancer) unknown mutants were created. For comparison, hyperactive CDK4 or CDK6 mutants known to be hyperactive due to less binding to natural inhibitor p16 were also created. The mutations in CDK4 or CDK6 were created by site-directed mutagenesis. WT or mutated CDK4 or CDK6 along with the CyclinD1 and SB-Rb were co-transfected, under similar conditions as previously indicated (see FIG. 9).
# Computer modeling was used to reveal the drug-binding pocket and predict drug-resistant mutants. The mutations in CDK4 and CDK6 were created by site-directed mutagenesis. WT or mutated CDK4 or CDK6 along with the CyclinD1 and SB-Rb was co-transfected into #11 cell line, under the same conditions as previously indicated. […] Dose response curves are presented on FIG. 13A and FIG. 13B. Activity of other mutants was very similar to the WT or KD.
# CDK4 and CDK6 mutants with known function and unknown function taken from the COSMIC database were analyzed in the present assay and are summarized in Table 7A and Table 7B. The mutants were classified according to their activity. Table 7A and Table 7B also show the number of counts per mutant in the COSMIC database, type of cancer, and luciferase activity compared to the WT (being 100%).
row,Molecule,Luc activity (/wt)
1,"CDK6 D163N: CDK6 mutant, literature kinase dead",408%
2,"CDK6 K43M: CDK6 mutant, literature kinase dead",468%
3,CDK6 P199L: CDK6 mutant from COSMIC database,565%
4,CDK6 R144H: CDK6 mutant from COSMIC database,267%
5,CDK6 R220C: CDK6 mutant from COSMIC database,164%
6,CDK6 R220S: CDK6 mutant from COSMIC database,271%

# Same assay, conditions: predicted drug resistant CDK6 mutants, relative to WT
row,Molecule,Luc. activity (/wt)
1,CDK6 A41V: predicted drug resistant CDK6 mutant,132%
2,CDK6 D104N: predicted drug resistant CDK6 mutant,138%
3,CDK6 F98I: predicted drug resistant CDK6 mutant,176%
4,CDK6 H100Y: predicted drug resistant CDK6 mutant,126%
5,CDK6 I19L: predicted drug resistant CDK6 mutant,129%
6,CDK6 L152V: predicted drug resistant CDK6 mutant,114%
7,CDK6 T107K: predicted drug resistant CDK6 mutant,95%
8,CDK6 V27A: predicted drug resistant CDK6 mutant,149%

# Same assay, conditions: predicted drug resistant CDK6 mutants; Palbociclib/Ribociclib
row,Molecule,Observed drug resist.
1,CDK6 T107K: predicted drug resistant CDK6 mutant,showed drug resistance; also recorded: Resistant

# Test system: E2F1/Dp-1 heterodimer
# Sequence (Q01094 58-437 limits assumed): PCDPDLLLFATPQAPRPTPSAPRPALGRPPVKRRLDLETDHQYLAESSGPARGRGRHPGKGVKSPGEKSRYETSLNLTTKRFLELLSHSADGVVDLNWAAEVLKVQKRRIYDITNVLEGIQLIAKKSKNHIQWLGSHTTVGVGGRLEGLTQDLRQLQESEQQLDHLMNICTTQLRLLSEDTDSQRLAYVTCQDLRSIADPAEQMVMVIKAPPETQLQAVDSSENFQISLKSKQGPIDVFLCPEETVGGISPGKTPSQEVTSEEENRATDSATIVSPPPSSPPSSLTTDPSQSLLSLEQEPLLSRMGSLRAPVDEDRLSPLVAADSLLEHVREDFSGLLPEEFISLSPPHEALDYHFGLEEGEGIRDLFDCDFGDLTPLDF
# Sequence (Q14186 whole entry, further chain): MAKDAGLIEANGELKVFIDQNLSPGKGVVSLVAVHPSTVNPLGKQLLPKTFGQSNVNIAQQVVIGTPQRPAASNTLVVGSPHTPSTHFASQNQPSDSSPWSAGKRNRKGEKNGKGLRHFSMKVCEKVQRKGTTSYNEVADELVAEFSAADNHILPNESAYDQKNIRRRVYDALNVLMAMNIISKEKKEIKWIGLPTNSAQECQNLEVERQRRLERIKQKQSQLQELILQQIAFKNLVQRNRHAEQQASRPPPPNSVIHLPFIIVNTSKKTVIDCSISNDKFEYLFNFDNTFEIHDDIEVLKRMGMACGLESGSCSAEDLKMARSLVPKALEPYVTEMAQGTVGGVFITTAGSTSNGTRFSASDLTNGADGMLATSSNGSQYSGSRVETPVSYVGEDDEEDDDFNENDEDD
# Assay: Rb activity assay (LB-Rb with E2F1-SB, DP1 split luciferase)
# Format: cell-based, human
# Set-up: key to Observed activity: N—no activity; A—active as WT; R—reduced activity compared to the WT
# Conditions: Rb mutants
# Source text: An assay that could measure the interaction between Rb, E2F1, and Dp-1 was developed. Since Dp-1 forms a heterodimer with E2F1 and that interaction is crucial for Rb/E2F1 binding, the assay was comprised of three components. When two proteins (Rb and E2F1) are in close proximity or in complex, a light signal was observed. For the purposes of the current assay, split-luciferase complementation was used to measure the interaction between Rb and E2F1. The NanoBiT assay system by Promega (Madison, Wis.; Dixon et al., 2015, ACS ChemBiol) was used in our split luciferase complementation design.
# FIG. 16 depicts the design of a signal system to measure Rb activity. Under basal conditions inside the cell, Rb was active and interacted with the E2F1/Dp-1 heterodimer. For this assay design, cDNAs of Rb linked to different parts of the luciferase protein, either termed as the “Small BiT” (SB), or “Large BiT” (LB) and E2F1 linked to the opposite portion of the luciferase protein were created. When Rb and E2F1/Dp-1 bind, the NanoBiT parts of the luciferase form a complex and emitted a light signal when the luciferase (NanoGlo) substrate was added.
# Using the described assay design, HEK293 CDK DKO cells were transiently transfected with different combinations of SB-Rb or LB-Rb and E2F1-LB or E2F1-SB components containing C-terminal and N-terminal constructs (FIG. 17). Relative intensities generated are presented in FIG. 17 as relative luminescence units (RLU). The data represents a sample experiment where each condition was performed in triplicate and represent mean+SD.
# The LB-Rb and E2F1-SB with Dp-1 were tested for Rb activity using known Rb null mutants: R661W and C706F (FIG. 18A). […] Rb in-frame (del35) and out-of frame (del1) deletion mutants (FIG. 18B) were constructed and the observed luciferase activity was close to 0, in particular for del1 mutant, because Rb-E2F1 binding was destroyed.
# Within the provided assay design, stable cell lines using the HEK293 CDK DKO cell parent line expressing E2F1-SB and Dp-1 were produced. After selection and screening for positive clones using an LB-Rb-mediated increase in signal, four stable single cell clones were selected and evaluated using different Rb mutants (FIGS. 19A and 19B). The response to E2F1 interaction was also checked by using the plasmid and linear form of DNA. Cell line #37 was selected for all our experiments in assay development due to its favorable response.
# The conditions of the assay were further optimized by analyzing different cell numbers and Rb concentrations (FIG. 20). Based on the data, it was decided to use 0.2×10^6 cells/ml and 70 ng of DNA in the assay.
# Known null and out/in-frame deletion mutants disrupting E2F1 binding and unknown COSMIC mutants were created to examine the ability of the assay to detect variants in Rb that affect function. We transfected WT or mutated Rb using similar conditions as previously indicated (FIG. 20). […] In addition, the null C706F and deletion (del1) mutants presented a signal close to zero as expected for loss of function mutants that disrupt E2F1 interaction. […] This confirmed that the assay was capable of determining the relative activity level of Rb mutants. The data is provided in Luminescence (RLU) of a single experiment with each condition performed in triplicate and represent average+SD.
row,Molecule,Observed activity
1,B1,N
2,B2,A
3,B3,A

# Same assay, conditions: Rb mutants, activity relative to WT
row,Molecule,% (/wt)
1,B1,7.4%
2,B2,92%
3,B3,120%

# Target: T1, CDK4 (Homo sapiens, UniProt P11802)
# T1 construct: expressed in transfected cells; host or cells: HEK293 CDK4/CDK6 double-knockout cells stably expressing E2F1-Dp-1-LB (clone #11); early experiments in plain HEK293
# T1 sequence (P11802 2-303): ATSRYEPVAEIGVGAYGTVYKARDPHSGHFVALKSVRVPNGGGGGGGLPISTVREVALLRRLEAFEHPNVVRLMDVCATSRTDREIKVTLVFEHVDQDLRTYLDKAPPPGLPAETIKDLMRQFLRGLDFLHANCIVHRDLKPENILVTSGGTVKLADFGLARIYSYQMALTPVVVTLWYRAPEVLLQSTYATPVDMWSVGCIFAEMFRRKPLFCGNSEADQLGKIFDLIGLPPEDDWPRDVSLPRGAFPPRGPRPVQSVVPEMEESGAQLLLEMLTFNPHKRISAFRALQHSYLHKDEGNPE
# Assay: p16 activity assay with CDK4 (NanoBiT, cell line #11)
# Format: cell-based
# Conditions: loss of function mutants
# Source text: We developed an assay that could measure the interaction between Rb, E2F1 and Dp-1. When the Rb and E2F1 proteins are in close proximity or in complex, a light signal is observed. For the purpose of the assay, split-luciferase complementation was used to measure the interaction between Rb and E2F1, which served as a surrogate measure of CDK4/6 activity and the ability of CDK4/6 to respond to the natural inhibitor p16. The NanoBiT assay system by Promega (Madison, Wis.; Dixon et al., 2015, ACS ChemBiol) was used in the split luciferase complementation design. FIG. 24 depicts a design of a signal system to measure p16 activity. Under basal conditions inside the cell, Rb is active and interacts with the E2F1/Dp-1 heterodimer. However, in the presence of the CDK4 or CDK6, Rb gets phosphorylated and released from the interacting complex. In the presence of the natural inhibitor p16, CDK4/6 is no longer available to phosphorylate Rb and thus promoting the Rb/E2F1-Dp-1 complex formation.
# For the purpose of the current assay, the stable cell line #11 that we generated for the CDK activity assay was used and described above. HEK293 CDK DKO cells containing E2F1-Dp-1-LB was transiently transfected with CDK4/CDK6, CyclinD1, and SB-Rb. The transfected cells were then exposed to the natural inhibitor p16 (FIG. 25). When CDK4 or CDK6 is present, a decrease in activity was observed as Rb gets phosphorylated resulting in no Rb/E2F1-Dp-1 interaction. […] The data presented was a sample experiment where each condition was performed in triplicate and represented mean+SD.
# The conditions of the assay were optimized by using different p16 amounts and cell numbers (FIGS. 25A and 25B). Based on the data generated, it was decided that using 0.2×10^6 cells/ml and 10 ng of p16 would be preferable.
# To examine the ability of the assay to detect variants in CDKN2A that affect function, known loss of function mutants and unknown COSMIC mutants were created. Wild-type or mutated CDKN2A were prepared in a manner similar to that previously indicated. […] Therefore the p16 activity assay is capable of determining the relative activity level of p16 mutants. The data provided is in Luminescence (RLU) of a single experiment with each condition performed in triplicate and represent average+SD. Summary Table 13 reports p16 mutants tested.
# In addition to check functional state of p16 mutants, p16 activity assay can be used to look at p16 inhibition response of different CDK4 and CDK6 mutants. Different response of WT CDK4 and CDK6 and hyperactive mutants of CDK4 (R24A) and CDK6 (R31C) is shown on FIG. 28. […] The p16 activity assay is so sensitive and specific that hyperactive CDK4 and CDK6 mutants can show different response to mutant p16.
row,Molecule,signal of p16 mutant (in words)
1,B4,close to the baseline
